In BindingDB's records for doi:10.1021/jm900075g (Wyeth Research, 2009):

biological target: RAC-alpha serine/threonine-protein kinase (Homo sapiens, UniProt P31749); test: Homogeneous Time-Resolved Fluorescence Resonance Energy Transfer Lance Assay; settings: pH 7.4; 22 °C
Method: AKT1 was assayed using constitutively active Myr-AKT1 in low-binding 96-well plates. The kinase reactions were initiated by the addition of assay mix containing kinase assay buffer, ATP, and a biotinylated substrate peptide. After incubation, Phosphorylated biotin-GSK3alpha was detected by the time-resolved fluorescence resonance energy transfer Lance format with all reagents obtained from Perkin-Elmer. Subsequently, the plates were read in a Victor plate reader (Wallac/Perkin-Elmer).

Chain of RAC-alpha serine/threonine-protein kinase (P31749 whole entry): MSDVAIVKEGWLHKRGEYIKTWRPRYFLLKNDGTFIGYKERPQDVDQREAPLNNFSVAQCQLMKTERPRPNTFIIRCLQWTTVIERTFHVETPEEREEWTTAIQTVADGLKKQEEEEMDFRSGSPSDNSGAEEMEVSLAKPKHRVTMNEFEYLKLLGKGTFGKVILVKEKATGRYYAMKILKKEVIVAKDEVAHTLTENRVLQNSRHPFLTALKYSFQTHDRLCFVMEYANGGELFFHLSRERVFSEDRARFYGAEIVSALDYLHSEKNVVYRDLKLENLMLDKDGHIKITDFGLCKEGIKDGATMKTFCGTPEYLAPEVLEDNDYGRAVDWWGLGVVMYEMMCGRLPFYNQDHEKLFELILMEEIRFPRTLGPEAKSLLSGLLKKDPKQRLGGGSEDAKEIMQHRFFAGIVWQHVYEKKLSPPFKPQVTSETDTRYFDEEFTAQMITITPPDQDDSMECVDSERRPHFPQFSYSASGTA

IC50 [nM] | SMILES
313 | C[C@H]1O[C@@H]2CC(=O)O[C@@H]2C2=C1C(=O)c1c(O)cccc1C2=O
99 | O=C1C[C@@H]2O[C@H](c3ccsc3)C3=C(C(=O)c4ccccc4C3=O)[C@@H]2O1 [Pyranonaphthoquinone (PNQ) lactone, 11e]
122 | O=C1C[C@H]2O[C@@H](c3ccsc3)C3=C(C(=O)c4ccccc4C3=O)[C@H]2O1 [Pyranonaphthoquinone (PNQ) lactone, 11f]

SMILES | IC50 [nM]
C[C@H]1O[C@@H]2CC(=O)O[C@@H]2C2=C1C(=O)c1c(ccc(C3C[C@@H](N(C)C)[C@H](O)[C@@H](C)O3)c1O)C2=O (some centres undefined) [Lactoquinomycin A] | 149
